pIC50: −log10 of the molar value.

T1 sequence (Q96SW2 with tags, fused parts or gaps): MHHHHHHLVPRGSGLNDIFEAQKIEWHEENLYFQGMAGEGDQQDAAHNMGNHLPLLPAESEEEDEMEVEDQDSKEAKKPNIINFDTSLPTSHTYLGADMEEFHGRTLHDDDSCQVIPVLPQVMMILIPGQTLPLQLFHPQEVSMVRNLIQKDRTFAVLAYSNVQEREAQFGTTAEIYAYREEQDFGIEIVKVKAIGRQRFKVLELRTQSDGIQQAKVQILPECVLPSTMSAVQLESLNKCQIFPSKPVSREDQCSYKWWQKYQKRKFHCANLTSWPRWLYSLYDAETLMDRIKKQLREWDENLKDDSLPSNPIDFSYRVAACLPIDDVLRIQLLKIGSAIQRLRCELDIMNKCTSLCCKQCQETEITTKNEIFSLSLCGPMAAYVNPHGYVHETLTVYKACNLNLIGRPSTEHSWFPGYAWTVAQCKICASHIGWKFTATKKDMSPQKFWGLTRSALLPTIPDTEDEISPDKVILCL

The experiment concerns the target T1, cereblon (CRBN)—DNA damage protein 1 (DDB1) complex (Homo sapiens, UniProt Q96SW2).
T1 construct: encoding amino acid residues 1 to 442 (Uniprot Q96SW2); hexahistidine (N); thrombin cleavage site (N); made in house; host or cells: Sf9 insect cells (baculovirus co-infection)
In words: Cereblon HTRF binding assay. An excerpt: The synthesized sequence was designed to encode an N-terminal hexahistidine tag, a thrombin cleavage site, an AviTag™ and a tobacco etch virus protease (TEV) cleavage site followed by the CBRN sequence. The resulting protein sequence is listed below.
The synthesized sequence was designed to encode an N-terminal hexahistidine tag, a tobacco etch virus protease (TEV) cleavage site followed by the DDB1 sequence. […] The linker amino acid residues are underlined and shown in italics.
Baculovirus production of CBRN and DDB1: Recombinant bacmid and P2 virus of CBRN and DDB1 was generated according to the Bac-to-Bac Baculovirus Expression System manual (ThermoFisher Scientific).
Protein Purification: Protein purification was initiated by thawing cells (resuspended in Lysis buffer) at r.t. Once thawed, NaCl was added to a final concentration of 200 mM, followed by 0.01 μL/mL Benzonase™ and the lysate was incubated with slow stirring for 20 minutes. After the freeze-thaw lysis, the whole cell lysate was centrifuged at 48 000 g for 45 minutes and all following purification steps were done on ice or in cold-room. Supernatant (cell lysate) was mixed with 1 mL/50 mL lysate Ni Sepharose™ 6 Fast Flow (Cytiva) pre-equilibrated with Wash buffer (50 mM Tris-Cl pH 8, 20 mM Imidazole, 500 mM NaCl, 10% Glycerol, 1 mM TCEP) and incubated with slow stirring for 1 h. The mix was loaded in a 70 mL open gravity flow column, washed with 10 bed volumes of Wash buffer, and stepwise eluted with 300 mM imidazole in Wash buffer. […] After biotinylation, the CBRN/DDB1 complex was purified by Size Exclusion Chromatography on a HiLoad™ 26/60 Superdex™ 200 column equilibrated in SEC buffer (50 mM HEPES pH 7.5, 200 mM NaCl, 5% glycerol, 1 mM TCEP) before flash-freezing in liquid nitrogen and storage at −80° C.
The assay mixture in a total volume of 4 μL consists of 50 mM Tris-HCl at pH 7.5, 100 mM NaCl, 0.01% Pluronic F127, 1 mM TCEP, 500 μM EDTA, 0.2 nM CRBN-DDB1, 0.2 nM terbium cryptate labeled streptavidin, and 2 nM Cyanine 5-labeled lenalidomide as the probe. […] Reagents were dispensed into the 384-well assay microplate using a Certus Flex liquid dispenser. After incubation for 2 h at r.t., the assay plates were read on a PHERAstar FSX plate reader (BMG Labtech) in the HTRF mode. The raw data from PHERAstar was directly imported into Genedata Screener for analysis. […] The ratio was normalized to positive and negative controls on the same plates to calculate percent inhibition: I %=(I−NC)/(PC−NC), where I are readings from the compound treated well, NC and PC are average readings from negative control wells and positive control wells, respectively. IC50 values were obtained by fitting the I % vs. compound concentration [I] to I %=S0+(SInf−S0)/(1+((IC50/[I])^n)), where S0 is the fitted activity level at zero concentration of test compound, SInf is the fitted activity level at […] concentration of test compound, and n is the hill coefficient of the curve.
The IC50 values reported below are the calculated mean result of one or more experiments.
In general terms: In TR-FRET formats the signal depends on donor and acceptor labels being close together.
Take `O=C(O)Cc1c[nH]c2cc(N3CCC(=O)NC3=O)ccc12` [Example 65, 2-(6-(2,4-Dioxotetrahydropyrimidin-1 (2H)-yl)-1H-indol-3-yl)acetic acid]: the pIC50 (commonly the negative decadic logarithm of the IC50, by convention in mol/L) is 6.12. Molecule `O=C1CCN(c2ccc3sc(N4CCNCC4)nc3c2)C(=O)N1` [Example 100, 1-(2-(Piperazin-1-yl)benzo[d]thiazol-5-yl)dihydropyrimidine-2,4 (1H,3H)-dione] showed a pIC50 of 5.97. `O=C1CCN(c2c(F)ccc3[nH]ccc23)C(=O)N1` [Example 63, 1-(5-Fluoro-1H-indol-4-yl)dihydropyrimidine-2,4 (1H,3H)-dione] gave a negative logarithm of the IC50 (pIC50) of 6.63. With `Cc1c(-n2ccc(=O)[nH]c2=O)cnc2cc[nH]c12` [Example 48, 1-(7-Methyl-1H-pyrrolo[3,2-b]pyridin-6-yl)pyrimidine-2,4 (1H,3H)-dione] the figure was 5.71.

Molecule `N#Cc1cc(N2CCC(=O)NC2=O)cc2[nH]ccc12` [Example 134, 6-(2,4-Dioxotetrahydropyrimidin-1 (2H)-yl)-1H-indole-4-carbonitrile] gave a pIC50 of 5.78. With `O=C1CCN(c2cnc3cnoc3c2)C(=O)N1` [Example 36, 1-(Isoxazolo[4,5-b]pyridin-6-yl)dihydropyrimidine-2,4 (1H,3H)-dione] the figure was 6.94; with `CN1CCC(n2ccc3ccc(N4CCC(=O)NC4=O)cc32)CC1` [Example 121, 1-(1-(1-Methylpiperidin-4-yl)-1H-indol-6-yl)dihydropyrimidine-2,4 (1H,3H)-dione], 5.42. With `CC(=O)N1CCN(c2c[nH]c3cc(N4CCC(=O)NC4=O)ccc23)CC1` [Example 73, 1-(3-(4-Acetylpiperazin-1-yl)-1H-indol-6-yl)dihydropyrimidine-2,4 (1H,3H)-dione] the figure was 6.02; with `O=C1CCN(c2ccc3ccoc3c2)C(=O)N1` [Example 1, 1-(Benzofuran-6-yl)dihydropyrimidine-2,4 (1H,3H)-dione], 5.68. With `O=C1CCN(c2cnc3ccoc3c2)C(=O)N1` [Example 37, 1-(Furo[3,2-b]pyridin-6-yl)dihydropyrimidine-2,4 (1H,3H)-dione] the figure was 5.51.

`CN1Cc2ccc(N3CCC(=O)NC3=O)cc2C1=O` [Example 10, 1-(2-Methyl-3-oxoisoindolin-5-yl)dihydropyrimidine-2,4 (1H,3H)-dione]: the negative logarithm of the IC50 (pIC50) is 5.10. With `O=C1CCN(c2ccc3sccc3c2)C(=O)N1` [Example 130, 1-(Benzo[b]thiophen-5-yl)dihydropyrimidine-2,4 (1H,3H)-dione] the figure was 6.15.

On to `O=C1CCN(c2ccc3nc(C4CCNCC4)oc3c2)C(=O)N1` [Example 96, 1-(2-(Piperidin-4-yl)benzo[d]oxazol-6-yl)dihydropyrimidine-2,4 (1H,3H1)-dione], for which the pIC50 was 5.43. Take `O=C1CCN(c2ccc3[nH]ncc3c2)C(=O)N1` [Example 35, 1-(1H-Indazol-5-yl)dihydropyrimidine-2,4 (1H,3H)-dione]: the pIC50 is 5.53. With `CC(=O)N1CCC(c2cc3ccc(N4CCC(=O)NC4=O)cc3[nH]2)CC1` [Example 83, 1-(2-(1-Acetylpiperidin-4-yl)-1H-indol-6-yl)dihydropyrimidine-2,4 (1H,3H)-dione] the figure was 6.95; with `O=C1CCN(c2ccc3ncoc3c2)C(=O)N1` [Example 5, 1-(Benzo[d]oxazol-6-yl)dihydropyrimidine-2,4 (1H,3H)-dione], 5.17; with `CNC(=O)Cn1ccc2ccc(N3CCC(=O)NC3=O)cc21` [Example 68, 2-(6-(2,4-Dioxotetrahydropyrimidin-1 (2H)-yl)-1H-indol-1-yl)-N-methylacetamide], 5.65.

The molecule `CN1CCC(c2nc3ccc(N4CCC(=O)NC4=O)cc3o2)CC1` [Example 97, 1-(2-(1-Methylpiperidin-4-yl)benzo[d]oxazol-6-yl)dihydropyrimidine-2,4 (1H,3H)-dione] showed a pIC50 of 5.62. With `O=C1CCN(c2ccc3ccn(C4CCNCC4)c3c2)C(=O)N1` [Example 120, 1-(1-(Piperidin-4-yl)-1H-indol-6-yl)dihydropyrimidine-2,4 (1H,3H)-dione] the figure was 5.66; with `O=C1CCN(c2ccc3c(cnn3C3CCNCC3)c2)C(=O)N1` [Example 106, 1-(1-(Piperidin-4-yl)-1H-indazol-5-yl)dihydropyrimidine-2,4 (1H,3H)-dione], 5.39; with `CN1CCN(c2noc3cc(N4CCC(=O)NC4=O)ccc23)CC1` [Example 94, 1-(3-(4-Methylpiperazin-1-yl)benzo[d]isoxazol-6-yl)dihydropyrimidine-2,4 (1H,3H)-dione], 5.38. With `Cn1ccc2c(N3CCC(=O)NC3=O)ccc(N3CCNCC3)c21` [Example 125, 1-(1-Methyl-7-(piperazin-1-yl)-1H-indol-4-yl)dihydropyrimidine-2,4 (1H,3H)-dione] the figure was 6.34; with `O=C1CCN(c2ccc3cn(C4CCNCC4)nc3c2)C(=O)N1` [Example 109, 1-(2-(Piperidin-4-yl)-2H-indazol-6-yl)dihydropyrimidine-2,4 (1H,3H)-dione], 5.99; with `O=C1CCN(c2ccc3c(c2)NCC3)C(=O)N1` [Example 22, 1-(Indolin-6-yl)dihydropyrimidine-2,4 (1H,3H)-dione], 6.31. Consider `O=C1CCN(c2ccc3c(c2)CNC3)C(=O)N1` [Example 24, 1-(Isoindolin-5-yl)dihydropyrimidine-2,4 (1H,3H)-dione], for which the pIC50 is 5.05. With `CNC(=O)Cn1ccc2c(N3CCC(=O)NC3=O)cccc21` [Example 70, 2-(4-(2,4-Dioxotetrahydropyrimidin-1 (2H)-yl)-1H-indol-1-yl)-N-methylacetamide], the pIC50 was 5.99. With `Cn1c(C2CCNCC2)cc2c(N3CCC(=O)NC3=O)cccc21` [Example 88, 1-(1-Methyl-2-(piperidin-4-yl)-1H-indol-4-yl)dihydropyrimidine-2,4 (1H,3H)-dione] the figure was 6.17; with `Cc1c(N2CCC(=O)NC2=O)c(F)cc2cc[nH]c12` [Example 58, 1-(5-Fluoro-7-methyl-1H-indol-6-yl)dihydropyrimidine-2,4 (1H,3H)-dione], 6.54.

Molecule `CN1CCn2c(cc3ccc(N4CCC(=O)NC4=O)cc32)C1` [Example 103, 1-(2-Methyl-1,2,3,4-tetrahydropyrazino[1,2-a]indol-7-yl)dihydropyrimidine-2,4 (1H,3H)-dione] showed a negative logarithm of the IC50 (pIC50) of 6.17. With `Cc1cc(N2CCC(=O)NC2=O)cc2[nH]ccc12` [Example 51, 1-(4-Methyl-1H-indol-6-yl)dihydropyrimidine-2,4 (1H,3H)-dione] the figure was 6.29.

`CN1CCC(n2cc3ccc(N4CCC(=O)NC4=O)cc3n2)CC1` [Example 110, 1-(2-(1-Methylpiperidin-4-yl)-2H-indazol-6-yl)dihydropyrimidine-2,4 (1H,3H)-dione] had a pIC50 of 6.18.

In the case of `CN1CCc2cc(N3CCC(=O)NC3=O)ccc2C1` [Example 31, 1-(2-Methyl-1,2,3,4-tetrahydroisoquinolin-6-yl)dihydropyrimidine-2,4 (1H,3H)-dione], the pIC50 is 5.39.

`COc1cc(N2CCC(=O)NC2=O)c2ccn(C)c2c1` [Example 16, 1-(6-Methoxy-1-methyl-1H-indol-4-yl)dihydropyrimidine-2,4 (1H,3H)-dione] gave a negative-log IC50 (pIC50) of 6.68.

For the origin of these results see patent publication US20230374007A1, “COMPOUNDS AND THEIR USE IN TREATING CANCER” (AstraZeneca AB, priority 2020, published 2023).
